Measured values taken from patent US20170340629A1 (AB SCIENCE, priority 2014, published 2017).
pIC50: −log10 of the molar value. Structures can show the parent of a compound that is named as a salt. Where two headings read alike, the source gives them in different places.

Assays:
HCC1937 = assay: WST-1 proliferation/viability assay, HCC1937; type: cell-based; settings: Homo sapiens, doxorubicin single agent, 72 h, 1% FCS
Experimental: (§1) Breast cancer cell lines (generous gift from Dr. […], UMR 599 INSERM, Marseille, France) were cultured as monolayers in RPMI 1640 medium, containing L-glutamine supplemented with 100 U/mL penicillin and 100 μg/mL streptomycin, and 10% v/v heat-inactivated fetal calf serum (AbCys Lot S02823S1800) under standard culture conditions (5% CO2, 95% air in humidified chamber at 37° C.). During proliferation assay, all cells were grown in medium containing 1% FCS. Colorimetric cell proliferation and viability assay (reagent WST-1 purchased from Roche cat N^o 1644807)-Cells were washed once and resuspended in RPMI 1% FCS. Cells were plated at 1×10^4/50 μl per well of a 96 well plate. […] Treatment was started by the addition of 50 μl of a 2× concentrated drug solution to a final volume of 100 μl. […] After incubating for 72 hours at 37° C., 10 μl of a 1⁄2 dilution of WST-1 reagent was added to each well and the plates were returned to the incubator for an additional 4 hours. The absorbance of the samples was measured at 490 nm using an EL800 Universal microplate reader (Bio-Tek Instruments Inc.). A background control without cells was used as a blank. […] Each sample was done in duplicate, the absorbance values were transferred to an excel file, the average and standard deviation of the duplicates were calculated and expressed as a percentage of the proliferation obtained in absence of treatment. […]

MDAMB231 = assay: WST-1 proliferation/viability assay, MDAMB231; type: cell-based, human; settings: 72 h, 1% FCS
Experimental: (§2) Breast cancer cell lines (generous gift from Dr. […], UMR 599 INSERM, Marseille, France) were cultured as monolayers in RPMI 1640 medium, containing L-glutamine supplemented with 100 U/mL penicillin and 100 μg/mL streptomycin, and 10% v/v heat-inactivated fetal calf serum (AbCys Lot S02823S1800) under standard culture conditions (5% CO2, 95% air in humidified chamber at 37° C.). During proliferation assay, all cells were grown in medium containing 1% FCS. Colorimetric cell proliferation and viability assay (reagent WST-1 purchased from Roche cat N^o 1644807)-Cells were washed once and resuspended in RPMI 1% FCS. Cells were plated at 1×10^4/50 μl per well of a 96 well plate. […] Treatment was started by the addition of 50 μl of a 2× concentrated drug solution to a final volume of 100 μl. […] After incubating for 72 hours at 37° C., 10 μl of a 1⁄2 dilution of WST-1 reagent was added to each well and the plates were returned to the incubator for an additional 4 hours. The absorbance of the samples was measured at 490 nm using an EL800 Universal microplate reader (Bio-Tek Instruments Inc.). A background control without cells was used as a blank. The positive control of the assay corresponds to the cell proliferation obtained in the absence of drug treatment (100% proliferation). Each sample was done in duplicate, the absorbance values were transferred to an excel file, the average and standard deviation of the duplicates were calculated and expressed as a percentage of the proliferation obtained in absence of treatment. The results presented are representative of a minimum of four experiments.

MDAMB134 = assay: WST-1 proliferation/viability assay, MDAMB134; type: cell-based, human; settings: 72 h, 1% FCS
Experimental: as §2

MCF-7 = assay: WST-1 proliferation/viability assay, MCF-7; type: cell-based; settings: Homo sapiens, 72 h, 1% FCS
Experimental: as §1

BT20 = assay: WST-1 proliferation/viability assay, BT20; type: cell-based; settings: Homo sapiens, BT-20, gemcitabine single agent, 72 h, 1% FCS
Experimental: as §1

BT474 = assay: WST-1 proliferation/viability assay, BT474; type: cell-based, human; settings: 72 h, 1% FCS
Experimental: as §1

Mia Paca-2 cells = assay: WST-1 proliferation/survival assay, gemcitabine-resistant Mia Paca-2; type: cell-based; settings: for pIC50: Homo sapiens, 72 hours, 1% FCS, read-out: IC50 single agent; for cell proliferation, single agent: TKI 10 μM; for sensitization of cells to gemcitabine by TKI pre-incubation: TKI 5 or 10 μM overnight before gemcitabine, FIG. 2
Experimental: The antiproliferative activity of each TKI and gemcitabine is assessed using a WST-1 proliferation/survival assay in growth medium containing 1% fetal calf serum (FCS). Treatment is started with the addition of the relevant drug. For combination treatment (TKI plus gemcitabine), cells are re-suspended in medium (1% FCS) containing 0, 5 or 10 μM of the relevant TKI and incubated overnight before gemcitabine addition. After 72 hours, WST-1 reagent is added and incubated with the cells for 4 hours before absorbance measurement at 450 nm in an EL800 Universal Microplate Reader (Bio-Tek Instruments Inc.). Media alone is used as a blank and proliferation in the absence of drug served as a positive control. A TKI sensitization index is calculated as the ratio of the IC50 of gemcitabine against the IC50 of the drug combination.

[1] = test system: TNBC (metastatic or locally advanced); settings: cisplatin alone (N = 58); Baselga et al. 2013; cited from earlier work
[2] = test system: relapsed or refractory inflammatory breast cancer; settings: lapatinib 1500 mg/day; 126 patients; Kaufman et al. 2009; cited from earlier work
[3] = test system: CMT-U309 canine mammary tumor cell line; assay: MTT proliferation assay and combination index, CMT-U309; settings: for Viability (%): 72 hours incubation, doses at single-agent IC50 concentrations; for pIC50: single agent
Experimental: (§3) Two canine mammary tumor (CMT) cell lines were evaluated, CMT-U27 and CMT-U309. CMT-U27 is a highly metastatic canine mammary carcinoma cell line while CMT-U309 is a non-metastatic spindle-cell cell line. Cell lines were maintained in Dulbecco's modified Eagles Medium-F12 supplemented with 10% fetal bovine serum and antimicrobials (penicillin [100 U/mL] and streptomycin [0.1 mg/mL]). Cell lines were maintained in a humidified atmosphere of 5% carbon dioxide at 37° C.
(§4) Solutions were prepared newly prepared from the stock solution for each experiment.
(§5) Cells were seeded at a density of 1.0×10^4 cells/well (final volume, 100 μL/well) in three replicates. […] At the end of treatment, 10 μl of MTT solution (5 mg/ml in PBS) was added to each well. The plates were incubated for 4 hours in a humidified atmosphere at 37° C. with 5% CO2. After that incubation, cell proliferation was assessed by use of a commercial cell proliferation MTT [3-(4,5-dimethylthiazol-2-yl)-2,5-diphenyltrazolium bromide] kit. All samples were assayed in triplicate, and the mean for each experiment was calculated. The effect of each compound on growth inhibition was assessed as percent cell viability where vehicle-treated cells were taken as 100% viable. Cell proliferation was expressed as a percentage of the control wells by use of the following equation: (absorbance of sample wells/absorbance of control wells)×100. The mean of triplicate experiments for each dose was used to calculate IC50 as determined by CalcuSyn software.

[4] = test system: CMT-U27 canine mammary carcinoma cell line; assay: MTT proliferation assay and combination index, CMT-U27; type: cell-based; settings: for pIC50: single agent, read-out: IC50 growth inhibitory activity
Experimental: as §3, §4, §5

[5] = test system: metastatic or locally advanced breast cancer (except triple negative); settings: patients resistant to at least one first-line chemotherapy; literature (Miller 2005; Brodowicz 2000); cited from earlier work
breast cancer cell lines = assay: WST-1 proliferation assay, masitinib mesilate single agent; type: cell-based; settings: Homo sapiens, 1% FCS
Experimental: Breast cancer cell lines (generous gift from Dr. […], UMR 599 INSERM, Marseille, France) were cultured as monolayers in RPMI 1640 medium, containing L-glutamine supplemented with 100 U/mL penicillin and 100 μg/mL streptomycin, and 10% v/v heat-inactivated fetal calf serum (AbCys Lot S02823S1800) under standard culture conditions (5% CO2, 95% air in humidified chamber at 37° C.). During proliferation assay, all cells were grown in medium containing 1% FCS. Colorimetric cell proliferation and viability assay (reagent WST-1 purchased from Roche cat N^o 1644807)-Cells were washed once and resuspended in RPMI 1% FCS. Cells were plated at 1×10^4/50 μl per well of a 96 well plate. […] Treatment was started by the addition of 50 μl of a 2× concentrated drug solution to a final volume of 100 μl. […] The absorbance of the samples was measured at 490 nm using an EL800 Universal microplate reader (Bio-Tek Instruments Inc.). […] Each sample was done in duplicate, the absorbance values were transferred to an excel file, the average and standard deviation of the duplicates were calculated and expressed as a percentage of the proliferation obtained in absence of treatment. […] Breast cancer cell lines were first analyzed for their sensitivity to masitinib mesilate when used as single agent.

[6] = carboplatin single agent, read-out: IC50 CPT
[7] = Canis lupus familiaris, 24 h, read-out: IC50 growth inhibitory activity, CMT-U309, 24 h
[8] = Canis lupus familiaris, 48 h, read-out: IC50 growth inhibitory activity, CMT-U309, 48 h
[9] = Canis lupus familiaris, 72 h, read-out: IC50 growth inhibitory activity, CMT-U309, 72 h

COc1cccc2c1C(=O)c1c(O)c3c(c(O)c1C2=O)C[C@@](O)(C(=O)CO)C[C@@H]3O[C@H]1C[C@H](N)[C@H](O)[C@H](C)O1 [DOX, doxorubicin]
pIC50 (HCC1937): 6.00
pIC50 (MDAMB231; Homo sapiens, MDA-MB-231, doxorubicin single agent, read-out: IC50 DOX): 6.00
pIC50 (MDAMB134; Homo sapiens, doxorubicin single agent, read-out: IC50 DOX): 6.00
pIC50 (MCF-7; MCF7, doxorubicin single agent, read-out: IC50 DOX): 6.00

Nc1ccn([C@@H]2O[C@H](CO)[C@@H](O)C2(F)F)c(=O)n1 [GCB, 2′,2′,-dofluoro-2′,-deoxycytidine]
pIC50 (BT20): 4.30
pIC50 (BT474; Homo sapiens, BT-474, gemcitabine single agent, read-out: IC50 GCB): 4.00
pIC50 (Mia Paca-2 cells): < 5.00
pIC50 (MDAMB231; Homo sapiens, MDA-MB-231, gemcitabine single agent, read-out: IC50 GCB): 4.00
pIC50 (MDAMB134; Homo sapiens, gemcitabine single agent, read-out: IC50 GCB): 4.00

N.N.[Cl][Pt][Cl] [Cisplatin, cisplatin]
Median OS (months) [1]: 9.4 months

Cc1ccc(NC(=O)c2ccc(CN3CCN(C)CC3)cc2)cc1Nc1nccc(-c2cccnc2)n1 [imatinib]
cell proliferation, single agent (Mia Paca-2 cells; FIG. 1): only weakly inhibited
sensitization of cells to gemcitabine by TKI pre-incubation (Mia Paca-2 cells): does not result in an increased response

N.N.O=C([O-])C1(C(=O)[O-])CCC1.[Pt+2] [CPT, carboplatin]
pIC50 (BT474; [6]): < 4.00
pIC50 (MDAMB231; [6]): < 4.00
pIC50 (MDAMB134; [6]): < 4.00

CS(=O)(=O)CCNCc1ccc(-c2ccc3ncnc(Nc4ccc(OCc5cccc(F)c5)c(Cl)c4)c3c2)o1 [Lapatinib, lapatinib]
Median overall survival [2]: 11.2 months

CCc1c2c(nc3ccc(OC(=O)N4CCC(N5CCCCC5)CC4)cc13)-c1cc3c(c(=O)n1C2)COC(=O)[C@]3(O)CC [CPT-11, irinotecan]
pIC50 (MDAMB231; Homo sapiens, MDA-MB-231, irinotecan single agent, read-out: IC50 CPT-11): 4.52
pIC50 (MDAMB134; Homo sapiens, irinotecan single agent, read-out: IC50 CPT-11): 4.52
pIC50 (MCF-7; MCF7, irinotecan single agent, read-out: IC50 CPT-11): 4.00

Cc1ccc(NC(=O)c2ccc(CN3CCN(C)CC3)cc2)cc1Nc1nc(-c2cccnc2)cs1 [Masitinib, 4-(4-methylpiperazin-1-ylmethyl)-N-[4-methyl-3-(4-pyridin-3ylthiazol-2-ylamino)phenyl]benzamide]
Viability (%) ([3]; CMT-U309): 66.0%
pIC50 [3, 7]: 4.82
pIC50 [3, 8]: 5.05
pIC50 [3, 9]: 5.07
pIC50 ([3]; read-out: IC50 growth inhibitory activity, CMT-U309, 72 h): 5.07
pIC50 ([4]; 72 h): 5.13
Viability (%) ([4]; 72 hours incubation, doses at single-agent IC50 concentrations): 77.3%
pIC50 ([4]; Canis lupus familiaris, 24 h): 5.04
pIC50 ([4]; Canis lupus familiaris, 48 h): 5.12
pIC50 ([4]; Canis lupus familiaris, 72 h): 5.12
pIC50 (Mia Paca-2 cells): 5.00 to 5.30
sensitization of cells to gemcitabine by TKI pre-incubation (Mia Paca-2 cells): significantly sensitized
cells remaining resistant (Mia Paca-2 cells; masitinib concentration of 10 μM, FIG. 1): more than 50%

Cc1nc(Nc2ncc(C(=O)Nc3c(C)cccc3Cl)s2)cc(N2CCN(CCO)CC2)n1 [dasatinib]
cell proliferation, single agent (Mia Paca-2 cells; FIG. 1): affected by a similar extent
sensitization of cells to gemcitabine by TKI pre-incubation (Mia Paca-2 cells): does not result in an increased response
cell proliferation at low concentrations (Mia Paca-2 cells; concentrations superior to 0.1 μM): partial inhibition

CCCCCOC(=O)Nc1nc(=O)n([C@@H]2O[C@H](C)[C@@H](O)[C@H]2O)cc1F [capecitabine]
Median OS (months), benchmark single agent (L2) [5]: 14.5 months

O=C1c2c(O)ccc(O)c2C(=O)c2c(NCCNCCO)ccc(NCCNCCO)c21 [Mitoxantrone, Mitoxantrone dihydrochloride]
Viability (%) ([3]; CMT-U309): 56.8%
pIC50 [3, 7]: 5.56
pIC50 [3, 8]: 6.00
pIC50 [3, 9]: 6.12
pIC50 ([3]; read-out: IC50 growth inhibitory activity, CMT-U309, 72 h, dihydrochloride): 6.12
pIC50 ([4]; 72 h, listed as Mixoxantrone, dihydrochloride): 6.66
pIC50 ([4]; Canis lupus familiaris, 24 h): 5.51
pIC50 ([4]; Canis lupus familiaris, 48 h): 5.96
pIC50 ([4]; Canis lupus familiaris, 72 h): 6.66

Cc1ccc(NC(=O)c2ccc(CN3CCN(C)CC3)cc2)cc1Nc1nc(-c2cccnc2)cs1 [Masitinib mesilate]
pIC50 (breast cancer cell lines): < 5.22
